From publication PMC4436593, “Endoplasmic reticulum stress-independent activation of unfolded protein response kinases by a small molecule ATP-mimic” (eLife, 2015)

What was measured:
[1] = system: ATF6 transcriptional targets HERPUD1 (HERP1) and DERLIN3 (DERL3); experiment: ATF6 target mRNAs HERP1 and DERL3 by RT-PCR in HEK293T cells; type: cell-based; details: IPA 1 μM and 4 μM, Tm
Text: To assess the effects of IPA on the activity of the two other UPR branches, we first examined activation of ATF6. To this end, we monitored mRNA levels by RT-PCR for two ATF6-driven transcriptional target genes, HERP1 and DERL3, in HEK293T cells.
Cells were lysed and total RNA was collected (Total RNA Kit 1, EZ-RNA, EZNA [USA]). PolyA^+ mRNA was reverse transcribed with M-MLV (Invitrogen), and the resulting cDNA was used as a template for PCR amplification across the fragment of XBP1 cDNA containing the intron. Primers used to amplify human XBP1: 5′-[…]-3′ and 5′-[…]-3′. To amplify murine XBP1: 5′-[…]-3′ and 5′-[…]-3′. PCR conditions were as follows: 95°C for 5 min, 95°C for 1 min, 58°C for 30 s, 72°C for 30 s, and 72°C for 5 min, with 20 cycles of amplification. PCR products were resolved on a 2.5% agarose tris-acetate EDTA (TAE) gel. As previously reported, a hybrid amplicon species consisting of unspliced Xbp-1 annealed to spliced Xbp-1 can also be produced through this PCR reaction and was visible as a slower migrating band above the unspliced amplicon. The same cDNA was used as template for PCR of DERLIN-3 and HERPUD1, both ATF6 targets, and GAPDH, which was used as loading control. Primers used included the following: DERLIN-3, 5′-[…]-3′ and 5′-[…]-3′; HERPUD1-1, 5′-[…]-3′ and 5′-[…]-3′; GAPDH, 5′-[…]-3′ and 5′-[…]-3′. […]

[2] = system: protein translation in HEK293T cells; experiment: Metabolic labeling: [35S] methionine incorporation in HEK293T cells; type: cell-based; details: IPA 1 μM
Experimental: HEK293T cells (500,000 cells/ml) were plated in 12-well flat bottom culture cluster dishes (Costar, Fisher Scientific) 24 hr before the experiment. IPA (1 μM), or a combination of IPA with GSK2606414 (TRC inc. […] Cells lysates were kept on ice for 30 min before high-speed centrifugation followed by denaturation at 95°C. The samples were resolved on an SDS-polyacrylamide gel, which were then stained with Coomassie blue to ascertain protein loading. […] The resulting autoradiograms were quantified using ImageQuant software (Molecular Dynamics).

SMILES: CSc1ccc(NC(=O)Nc2ccc(Nc3nccc(Nc4cc(C5CC5)[nH]n4)n3)cc2)cc1 [IPA]
- induction of ATF6 target genes HERP1 and DERL3 [1]: no detectable induction
- incorporation of [35S]-methionine into newly synthesized proteins [2]: impaired
